Measurements taken from US12110313B2, “Engineered bacterial ribosome compositions and methods” (ARIZONA BOARD OF REGENTS ON BEHALF OF ARIZONA STATE …, priority 2019, dated 2024).

B1: Asp29: murine INF-β with replacement of Asn29 with Asp29 (protein, UniProt P01575 22-182, looked up, variant N29D)
Interferon beta: INYKQLQLQERTNIRKCQELLEQLNGKIDLTYRADFKIPMEMTEKMQKSYTAFAIQEMLQNVFLVFRNNFSSTGWNETIVVRLLDELHQQTVFLKTVLEEKQEERLTWEMSSTALHLKSYYWRVQRYLKLMKYNSYAWMVVRAEIFRNFLIIRRLTRNFQN
B2: Ala29: murine INF-β with replacement of Asn29 with Ala29 (protein, UniProt P01575 22-182, looked up, variant N29A)
Interferon beta: INYKQLQLQERTNIRKCQELLEQLNGKIALTYRADFKIPMEMTEKMQKSYTAFAIQEMLQNVFLVFRNNFSSTGWNETIVVRLLDELHQQTVFLKTVLEEKQEERLTWEMSSTALHLKSYYWRVQRYLKLMKYNSYAWMVVRAEIFRNFLIIRRLTRNFQN
B3: non-glycosylated IFN-β: non-glycosylated murine interferon-β (protein, UniProt P01575 22-182, looked up)
Interferon beta: INYKQLQLQERTNIRKCQELLEQLNGKINLTYRADFKIPMEMTEKMQKSYTAFAIQEMLQNVFLVFRNNFSSTGWNETIVVRLLDELHQQTVFLKTVLEEKQEERLTWEMSSTALHLKSYYWRVQRYLKLMKYNSYAWMVVRAEIFRNFLIIRRLTRNFQN
modifications: non-glycosylated

Columns and labels:
wild-type ribosomes = assay: Incorporation of glycosylated amino acids into proteins from activated suppressor tRNAs by wild-type ribosomes; assay type: biochemical, E. coli; conditions: nonsense codon suppression with activated suppressor tRNA
Excerpt: FIG. 3 depicts glycosylated amino acids incorporated into proteins by wild-type E. coli ribosomes.
Many glycosylated amino acids can be incorporated into proteins in quite good yield from activated suppressor tRNAs by nonsense codon suppression employing wild-type ribosomes. However, in numerous experiments, when any of these was O- or N-acetylated at one or more positions, the result was virtually complete loss of the ability of the activated tRNAs to suppress nonsense codons. Accordingly, we have used O-GlcNAc-puromycin (FIG. 4) to select modified ribosomes capable of incorporating N-acetylglycosyl amino acids.
Post-translational protein glycosylation is both ubiquitous in nature and quite important. […] However, for whatever reason(s), neither O- nor N-acetylated glycosyl amino acids could be incorporated in good yield with wild-type ribosomes. We wish to select modified ribosomes capable of incorporating O- or N-acetylated glycosyl amino acids efficiently.

[1] = test system: CD40 expression in RAW 264.7 mouse macrophage cells; assay: CD40 upregulation in RAW 264.7 cells by flow cytometry with PE-conjugated anti-mouse CD40 antibody; assay type: cell-based
Description: FIG. 6. Flow cytometry analysis of RAW 264.7 cells treated with murine IFNs and probed with PE-conjugated anti-mouse CD40 antibody. Upper left, 0.6 pg/mL glycosylated IFN; upper right, 6 pg/mL non-glycosylated IFN; lower left, 0.6 pg/mL non-glycosylated IFN; lower right, control lacking IFN.
These four modified INF-βs were tested in parallel with wild-type (fully glycosylated) mouse IFN-β for their activities. Our assay system uses RAW 264.7 mouse macrophage cells (ATCC TIB-71), which have been transformed using Abelson murine leukemia virus. […] CD40 upregulation was probed using a PE (phycoerythrin)-conjugated anti-mouse CD40 antibody. As shown (FIG. 6), this assay system has been used successfully to compare fully glycosylated and non-glycosylated murine INF-βs by flow cytometry.

antiviral activity = conditions: murine INF-β, modification at position 29; cited from earlier work

Molecule	response in CD40 upregulation assay [1]	reduction of antiviral activity from wild-type (antiviral activity)	other results
N[C@@H](Cc1ccc(OC2O[C@H](CO)[C@@H](O[C@@H]3O[C@H](CO)[C@H](O)[C@H](O)[C@H]3O)[C@H](O)[C@H]2O)cc1)C(=O)O (stereo partly drawn) [O-lactosyltyrosine]			incorporation into proteins by wild-type ribosomes (wild-type ribosomes): incorporated into proteins quite well
glycosylated IFN-β: fully glycosylated murine interferon-β	dose-dependent responses		potency relative to non-glycosylated IFN-β ([1]; CD40 upregulation): about 10 fold
B1		two-fold	
B2		10 fold	
B3	dose-dependent responses		
